In US20140219995A1, “INHIBITORS OF BACTERIAL TYPE III SECRETION SYSTEM” (priority 2011, published 2014) one finds IC50, melting point and CC50 data, which are given here for 14 compounds.

Molecules are shown by their SMILES. Where two headings read alike, the source gives them in different places.

The test system of series [1] is T3SS-mediated cytotoxicity of translocated effector protein ExoU in CHO cells. The experiment in a line: Inhibition of P. aeruginosa ExoU-dependent CHO cell killing (translocation, LDH release). The format is cell-based. To be noted: Pseudomonas aeruginosa, read-out: Avg. Translocation IC50. From the text: Inhibition of P. aeruginosa ExoU-Dependent CHO Cell Killing.
Pseudolipasin, which acts by direct inhibition of the ExoU phospholipase, was used as control inhibitor (Lee, et al, 2007, Infect. Immun., 75:1089-98).

For series [2], the system named is T3SS-mediated secretion of ExoS′-βLA fusion protein, P. aeruginosa strain MDM973. In words: Effector-β-lactamase (ExoS′-βLA) secretion assay. The format is cell-based, Pseudomonas aeruginosa. To be noted: Pseudomonas aeruginosa, read-out: Avg. Secretion IC50. From the text: Effector-β-Lactamase (βLA) Secretion Assays.
P. aeruginosa. A gene encoding an ExoS'-β-lactamase (βLA) fusion protein (comprised of 234 codons of P. aeruginosa effector ExoS fused to the TEM-1 β-lactamase gene lacking secretion signal codons) was constructed by splicing by overlap extension PCR (SOE-PCR) (Choi and Schweizer, 2005, BMC Microbiol., 5:30) using primers 5-10 (Table 3, above), sequence confirmed, cloned into lacI^Q-containing GATEWAY® vector pUCP24GW (see Moir, et al., 2007, J Biomol. Screen., 12:855-64) behind the lac promoter, and introduced into P. aeruginosa by electroporation (see Choi, et al., 2006, J. Microbiol. Methods, 64:391-7). Secretion of fusion proteins was detected by measuring the hydrolysis of the chromogenic β-lactamase substrate nitrocefin in clear 96-well microplates in a modification of a previously described assay (Lee, et al., 2007, Infect. Immun., 75:1089-98). Cells of strain MDM973 (PAK/pUCP24GW-exoS:blaM) were sub-cultured in the morning from overnight growths in LBG into 0.1 ml of LBGIE with or without test compounds and grown for 150 min. Nitrocefin (100 μg/ml final) was added, and A490 measurements taken every minute for 15 min in a Victor^3V 1420 Multilabel HTS Counter (PerkinElmer). Slopes were calculated as a relative measure of the quantity of the effector-βLA fusion protein secreted and were absolutely dependent on induction with IPTG, EGTA, and the presence of a functional pscC gene in the P. aeruginosa cells. Typical signal:background ratios were 6-10.

The nature of series [3]: Determination of mammalian cytotoxicity (MTS). The format is cell-based. To be noted: human. As for the experimental part:
Determination of Mammalian Cytotoxicity.
See, Marshall, et al., 1995, A critical assessment of the use of microculture tetrazolium assays to measure cell growth and function, Growth Regul., 5:69-84. Briefly, 96-well plates were seeded with HeLa cells at a density of 4×10^3 per well in VP-SFM medium without serum (Frazzati-Gallina, et al., 2001, J. Biotechnol., 92:67-72), in the presence or absence of serial dilutions of a compound dissolved in DMSO. Following incubation for 3 days at 37° C. in VP-SFM, cell viability was measured with the vital tetrazolium salt stain 3-(4,5-dimethylthiazol-2-yl)-2,5 diphenyltetrazolium bromide according to the manufacturer's instructions (Promega, Madison, Wis.). Values were determined in duplicate using dilutions of inhibitory compound from 100 μM to 0.2 μM.

Where [4] appears, read: Table 4, HeLa cells, 3 days, dilutions from 100 μM to 0.2 μM, read-out: Avg. CC50.

Compound `COc1ccc(CNC(=O)C(C)Sc2ccc(Cl)cc2Cl)cc1` (centres unmarked) [MBX-2163] had a melting point of 89 °C. Further, in series [1], the half-maximal inhibitory concentration (IC50) is 12.2 µM. The IC50 in series [2] was determined as 8.3 µM. The compound also displayed a CC50 at 3 days in series [3] of over 100 µM.
Consider `CC(Oc1ccc(Cl)cc1Cl)C(=O)NCc1ccc2c(ccn2C)c1` (centres unmarked) [MBX-2591], for which the melting point was 146 °C. For the same compound, the IC50 in series [1] is over 100 µM. Also, the half-maximal inhibitory concentration (IC50) in series [2] was 4.1 µM. In series [3] (setting [4]), the CC50 at 3 days stood at 38 µM.
`Cc1c(-c2ccccc2)[nH]c2ccc(CNC(=O)C(C)Oc3ccc(Cl)cc3Cl)cc12` (centres unmarked) [MBX-2600]: the melting point worked out at 68 °C. Moreover, in series [1], the IC50 is 83 µM. Also, the IC50 in series [2] worked out at 9 µM. This compound also gave a half-maximal cytotoxic concentration (CC50) at 3 days in series [3] of 24 µM.
In the case of `CC(Oc1ccc(Cl)cc1Cl)C(=O)NC(C#N)c1ccc(F)cc1` (centres unmarked) [MBX-2627], the melting point worked out at 112 °C. The IC50 in series [1] stood at 11 µM. In addition, the IC50 in series [2] came to 5.9 µM. Besides, the cytotoxic concentration (CC50) at 3 days in series [3] (setting [4]) was 26 µM.
For the compound `CC(Oc1ccc(Cl)cc1Cl)C(=O)NCCc1ccc(F)cc1` (centres unmarked) [MBX-2588], the melting point came out at 129 °C. Besides, the IC50 in series [1] is 68 µM. For the same compound, in series [2], the IC50 is 5.5 µM. Also, the cytotoxic concentration (CC50) at 3 days in series [3] (setting [4]) was 25 µM.
In the case of `CC(Oc1ccc(Cl)cc1Cl)C(=O)NCc1ccc2[nH]c(CCO)cc2c1` (centres unmarked) [MBX-2626], the melting point amounted to 157 °C. Besides, the IC50 in series [1] stood at 9.2 µM. The IC50 in series [2] turned out to be 5.4 µM. In series [3], this compound displayed a half-maximal cytotoxic concentration (CC50) at 3 days of over 100 µM.
In turn, `CC(Oc1ccc(Cl)cc1Cl)C(=O)NCc1ccc2occc2c1` (centres unmarked) [MBX-2592] came in with a melting point of 125 °C. The IC50 in series [1] was over 100 µM. Moreover, the concentration for half-maximal inhibition (IC50) in series [2] was 2.5 µM. The CC50 at 3 days in series [3] (setting [4]) was found to be 44 µM.
Take `CC(Oc1ccc(Cl)cc1Cl)C(=O)NCc1ccc(N(C)C)cc1` (centres unmarked) [MBX-1961]: the melting point amounted to 127 °C. The IC50 in series [1] turned out to be 3.4 µM. The IC50 in series [2] is 33 µM. Further, the CC50 at 3 days in series [3] (setting [4]) is 86 µM.
Turning to `CC(Oc1ccc(Cl)cc1Cl)C(=O)NCc1ccc2c(c1)CCCO2` (centres unmarked) [MBX-1997], the melting point was determined as 106 °C. In series [1], the 50% inhibitory concentration (IC50) was determined as 9.2 µM. For the same compound, the IC50 in series [2] was 7.3 µM. Also, the CC50 at 3 days in series [3] (setting [4]) was over 100 µM.
On the same counts, the results for `CC(Oc1ncc(Cl)cc1Cl)C(=O)NCc1ccc(F)cc1` (centres unmarked) [MBX-2158] are 129 °C, 26.4 µM, 6.8 µM and over 100 µM.
`CC(Oc1ccc(Cl)cc1Cl)C(=O)NCCc1c[nH]c2cc(F)ccc12` (centres unmarked) [MBX-2613] displayed a melting point of 114 °C. Moreover, the IC50 in series [1] amounted to 10 µM. For the same compound, the IC50 in series [2] was 12 µM. The CC50 at 3 days in series [3] is 7 µM.
For `CC(Oc1ccc(Cl)cc1Cl)C(=O)NC1CCc2cc(F)ccc21` (centres unmarked) [MBX-2595], the melting point came out at 135 °C. Further, the IC50 in series [1] was over 100 µM. In series [2], the IC50 turned out to be 16 µM. Further, the CC50 at 3 days in series [3] (setting [4]) turned out to be 35 µM.
On to `CC(Oc1ccc(Cl)cc1Cl)C(=O)NC1COc2cc(F)ccc21` (centres unmarked) [MBX-2589], for which the melting point turned out to be 134 °C. The IC50 in series [1] is over 100 µM. The IC50 in series [2] was found to be 25 µM. Also, the half-maximal cytotoxic concentration (CC50) at 3 days in series [3] (setting [4]) is 36 µM.
The compound `CC(Oc1ccc(Cl)cc1Cl)C(=O)NC(c1ccc(F)cc1)C1CC1` (centres unmarked) [MBX-2614] had a melting point of 109 °C. Also, the concentration for half-maximal inhibition (IC50) in series [1] came to 8.4 µM. Further, the IC50 in series [2] is 1.5 µM. In series [3] (setting [4]), the CC50 at 3 days stood at 12.8 µM.
